This note sets out measurements from patent publication US7842825B2, “Biaryloxymethylarenecarboxylic acids as glycogen synthase activator” (Hoffmann-La Roche Inc., priority 2003, dated 2010).

The test system of this test is glycogen synthase. Nature of the test: Glycogen Synthase (GS) Assay, in vitro activation of glycogen synthase. It is filed as biochemical. As to conditions: compound concentration needed to stimulate 200% of the enzyme activity; coupled pyruvate kinase/lactate dehydrogenase assay, absorbance at 340 nm, 37° C. How it is done:
Twelve μl per well of substrate solution containing glycogen (4.32 mg/ml), 21.6 mM UDP-glucose, 21.6 mM phospho(enol)pyruvate and 2.7 mM NADH in 30 mM glycylglycine, pH 7.3 buffer is added into a polystyrene 384-well assay plate (BD Biosciences). Compound solution (8 μl/well) at various concentrations (0-57 μM) in 30 mM glycylglycine, pH 7.3, 40 mM KCl, 20 mM MgCl2 plus 9.2% DMSO are added to the assay plate (columns 5-24). Enzyme solution (12 μl/well) containing glycogen synthase (16.88 μg/ml), pyruvate kinase (0.27 mg/ml), lactate dehydrogenase (0.27 mg/ml) in 50 mM Tris-HCl, pH 8.0, 27 mM DTT and bovine serum albumin (BSA, 0.2 mg/ml) is added to the assay plate (columns 3-24). As a blank control, enzyme solution without glycogen synthase is added into the top half wells of columns 1-2. To the bottom half wells of columns 1-2 are added a known activator, glucose 6-phosphate (18.9 mM) in addition to the enzyme solution. The reaction mixture is incubated at 37° C. The assay plate is then read for absorbance at 340 nm on a Tecan Ultra reader every 3 minutes up to a total of 30 minutes.
The enzyme activity (with or without compound) is calculated by the reaction rate and represented by the optical density change (ΔOD) per minute. Percent stimulation of glycogen synthase activity by a compound at various concentrations is calculated by the following formula: % stimulation=100*Rs/Rt,
where Rs is the reaction rate of the enzyme in the presence of compound and Rt is the reaction rate of the enzyme in the absence of compound.
SC2.0 is defined as the compound concentration that is needed to stimulate 200% of the enzyme activity.
Glycogen Synthase (GS) Assay
The following tests were carried out in order to determine the activity of the compounds of formula (I).
Twelve μl per well of substrate solution containing glycogen (4.32 mg/ml), 21.6 mM UDP-glucose, 21.6 mM phospho(enol)pyruvate and 2.7 mM NADH in 30 mM glycylglycine, pH 7.3 buffer was added into a polystyrene 384-well assay plate (BD Biosciences). Compound solution (8 μl/well) at various concentrations (0-57 μM) in 30 mM glycylglycine, pH 7.3, 40 mM KCl, 20 mM MgCl2 plus 9.2% DMSO were added to the assay plate (columns 5-24). Enzyme solution (12 μl/well) containing glycogen synthase (16.88 μg/ml), pyruvate kinase (0.27 mg/ml), lactate dehydrogenase (0.27 mg/ml) in 50 mM Tris-HCl, pH 8.0, 27 mM DTT and bovine serum albumin (BSA, 0.2 mg/ml) was added to the assay plate (columns 3-24). As a blank control, enzyme solution without glycogen synthase was added into the top half wells of columns 1-2. To the bottom half wells of columns 1-2 were added a known activator, glucose 6-phosphate (18.9 mM) in addition to the enzyme solution. The reaction mixture was incubated at 37° C. The assay plate was then read for absorbance at 340 nm on a Tecan Ultra reader every 3 minutes up to a total of 30 minutes.
The enzyme activity (with or without compound) was calculated by the reaction rate and represented by the optical density change (ΔOD) per minute. Percent stimulation of glycogen synthase activity by a compound at various concentrations was calculated by the following formula: % stimulation=100*Rs/Rt, […]
For `O=C(NC1(C(=O)O)CCCC1)c1ccc(COc2ccc(-c3ccccc3)cc2)o1` [Example 34, 1-{[5-(Biphenyl-4-yloxymethyl)-furan-2-carbonyl]-amino}-cyclopentane carboxylic acid], the SC2.0 is 16.3 µM.

Turning to `O=C(O)c1cccc(COc2ccc(-c3ccc(Br)cc3)cc2)c1` [Example 4, 3-(4′-Bromo-biphenyl-4-yloxymethyl)-benzoic acid], the SC2.0 was determined as 3.8 µM.

In the case of `O=C(O)c1csc(COc2ccc(-c3ccc(Cl)cc3)cc2)n1` [Example 26, 2-(4′-Chloro-biphenyl-4-yloxymethyl)-thiazole-4-carboxylic acid], the SC2.0 worked out at 3.1 µM.

The compound `O=C(O)c1ccc(COc2ccc(-c3ccc(Cl)cc3)cc2)o1` [Example 12, 5-(4′-Chloro-biphenyl-4-yloxymethyl)-furan-2-carboxylic acid] came in with an SC2.0 of 0.8 µM.

Regarding `O=C(O)[C@H]1CCCN1C(=O)c1ccc(COc2ccc(-c3ccccc3)cc2)o1` [1-[5-(Biphenyl-4-yloxymethyl)-furan-2-carbonyl]-L-pyrrolidine-2-carboxylic acid], the SC2.0 was determined as 1.4 µM.

`O=C(O)c1ccc(COc2ccc(-c3ccccc3)cc2)s1` [5-(Biphenyl-4-yloxymethyl)-thiophene-2-carboxylic acid] yielded an SC2.0 of 12.7 µM.

In the case of `O=C(O)c1ccc(COc2cccc(-c3ccccc3)c2)o1` [Example 9, 5-(Biphenyl-3-yloxymethyl)-furan-2-carboxylic acid], the SC2.0 was found to be 14.9 µM.

Turning to `COc1ccc(-c2ccc(OCc3cccc(C(=O)O)c3)cc2)cc1` [Example 7, 3-(4′-Methoxy-biphenyl-4-yloxymethyl)-benzoic acid], the SC2.0 worked out at 9.6 µM.

`O=C(O)c1csc(COc2ccc(-c3ccccc3)cc2Cl)n1` [Example 22, 2-(3-Chloro-biphenyl-4-yloxymethyl)-thiazole-4-carboxylic acid] returned an SC2.0 of 14.9 µM.

For `O=C(O)c1ccccc1COc1ccc(-c2ccccc2)cc1Cl` [Example 15, 2-(3-Chloro-biphenyl-4-yloxymethyl)-benzoic acid], the SC2.0 turned out to be 10.3 µM.
